From ChEMBL document CHEMBL3046659, “Synthesis and Biological Evaluation of Allosteric A1-Adenosine Receptor Modulators Structurally Related to (2-Amino-4,5,6,7-Tetrahydro-Benzo[B]Thiophen-3-YL)-(4-Chloro-Phenyl)-Methanone, a Potent Compound Useful to Reduce Neuropathic Pain” (Med Chem Res, 2005) come the findings set out here.

The source made the active and inactive calls. No cut-off for these calls is given here.

The target in assay [1] is T1, Adenosine receptor A1 (Homo sapiens) (UniProt P30542).
T1 sequence (whole entry): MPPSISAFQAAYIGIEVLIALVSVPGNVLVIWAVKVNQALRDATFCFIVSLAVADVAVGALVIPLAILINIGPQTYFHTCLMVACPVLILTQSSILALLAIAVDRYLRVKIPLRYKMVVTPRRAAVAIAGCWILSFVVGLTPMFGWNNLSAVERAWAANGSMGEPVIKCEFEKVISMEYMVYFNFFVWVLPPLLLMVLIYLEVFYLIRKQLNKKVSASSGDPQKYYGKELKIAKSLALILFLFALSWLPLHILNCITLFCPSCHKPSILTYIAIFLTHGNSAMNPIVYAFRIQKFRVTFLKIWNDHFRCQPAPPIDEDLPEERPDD
Nature of the assay: Antagonist activity at Homo sapiens (human) Adenosine A1 receptor expressed in CHO cells assessed as cAMP level at 0.01 to 10 uM after 6 min by radioimmunoassay. The class given is functional, cell-based.

The target in assay [2] is T1, Adenosine receptor A1 (Homo sapiens). Kind of assay: Inverse agonist activity at Homo sapiens (human) Adenosine A1 receptor expressed in CHO cells assessed as increase in cAMP level at 10 uM after 6 min by radioimmunoassay. It counts as functional, cell-based.
Assay [3] has the same target. Nature of the assay: Inverse agonist activity at Homo sapiens (human) Adenosine A1 receptor expressed in CHO cells assessed as increase in cAMP level at 1 uM after 6 min by radioimmunoassay. The class given is functional, cell-based.
The target is the same in assay [4]. Kind of assay: Allosteric modulation of Homo sapiens (human) Adenosine A1 receptor expressed in CHO cells assessed as reduction of cAMP level at 10 uM after 6 min by radioimmunoassay. It counts as functional, cell-based. Details: scale not given: the % may be the effect or the level left.
For assay [5] the target is unchanged. Kind of assay: Allosteric modulation of Homo sapiens (human) Adenosine A1 receptor expressed in CHO cells assessed as reduction of cAMP level at 1 uM after 6 min by radioimmunoassay. It counts as functional, cell-based. Details: scale not given: the % may be the effect or the level left.
For assay [6] the target is unchanged. Nature of the assay: Allosteric modulation of Homo sapiens (human) Adenosine A1 receptor expressed in CHO cells assessed as reduction of cAMP level at 0.1 uM after 6 min by radioimmunoassay. The class given is functional, cell-based. Details: scale not given: the % may be the effect or the level left.
Assay [7] shares this target. Kind of assay: Allosteric modulation of Homo sapiens (human) Adenosine A1 receptor expressed in CHO cells assessed as reduction of cAMP level at 0.01 uM after 6 min by radioimmunoassay. It counts as functional, cell-based. Details: scale not given: the % may be the effect or the level left.
For assay [8] the target is unchanged. Kind of assay: Inverse agonist activity at Homo sapiens (human) Adenosine A1 receptor expressed in CHO cells assessed as increase in cAMP level at 0.01 uM after 6 min by radioimmunoassay. The class given is functional, cell-based.
Assay [9] addresses T2, Adenosine receptor A1 (Rattus norvegicus) (UniProt P25099).
T2 sequence (whole entry): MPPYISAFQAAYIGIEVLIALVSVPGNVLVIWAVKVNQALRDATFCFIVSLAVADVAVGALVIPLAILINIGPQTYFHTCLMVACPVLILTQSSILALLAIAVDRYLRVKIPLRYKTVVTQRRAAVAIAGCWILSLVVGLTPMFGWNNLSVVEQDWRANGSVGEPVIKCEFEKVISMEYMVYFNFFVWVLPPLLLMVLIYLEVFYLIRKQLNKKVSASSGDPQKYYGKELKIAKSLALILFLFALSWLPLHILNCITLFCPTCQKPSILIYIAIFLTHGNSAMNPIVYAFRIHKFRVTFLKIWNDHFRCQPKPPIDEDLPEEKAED
Kind of assay: Displacement of [3H]CCPA from A1 receptor in Rattus norvegicus (rat) brain membrane at 10 uM after 90 min.

Assay [10] has as its target T1, Adenosine receptor A1 (Homo sapiens). Kind of assay: Displacement of [3H]CCPA from A1 receptor in Homo sapiens (human) brain membrane at 10 uM after 90 min.
Assay [11] shares this target. Nature of the assay: Displacement of [3H]CCPA from Homo sapiens (human) A1 receptor expressed in CHO cells at 10 uM after 90 min. It counts as cell-based.
The target is the same in assay [12]. Kind of assay: Allosteric enhancer activity at Homo sapiens (human) Adenosine A1 receptor expressed in CHO cells assessed as […] in cAMP level at 10 uM after 6 min by radioimmunoassay. It counts as functional, cell-based.
Assay [13] shares this target. Kind of assay: Inverse agonist activity at Homo sapiens (human) Adenosine A1 receptor expressed in CHO cells assessed as increase in cAMP level at 0.1 uM after 6 min by radioimmunoassay. It counts as functional, cell-based.

Turning to `Nc1sc2c(c1C(=O)c1ccc(Cl)cc1)CCC1(C2)OCCO1`, the result in [1], in [2] and in [3] was Active. Moreover, the Activity in assay [4] was 28%; in [5], 3%; in assay [6] it was -14%; in assay [7] it was -17%.

For `CS(=O)(=O)OC1CCc2c(sc(N)c2C(=O)c2ccc(Cl)cc2)C1` (stereo unspecified), the result in assay [1], in assay [2], in [3] and in [8] was Active. Further, the Activity in assay [4] is 46%; in [5], 15%; in assay [6], -1%; in [7], 11%.

Turning to `Nc1sc2c(c1C(=O)c1ccc(Cl)cc1)CCC(c1ccccc1)C2` (stereo unspecified), the outcome in [1] and in assay [8] was Active. The Activity was -7% in assay [4]; -11% in assay [5]; 33% in assay [9]; 29% in assay [10]; 65% in assay [11]; -1% in assay [6]. Further, the Activity in assay [7] is 20%. Also, in assay [11], the Bmax is 53%.

In the case of `Nc1sc2ccccc2c1C(=O)c1ccc(Cl)cc1`, the outcome in [12] was Active. Also, the Activity in [4] is -29%; in assay [5], -6%; in assay [6], -5%; in assay [7], -8%.

Regarding `COc1ccc(C2SCc3c(sc(N)c3C(=O)c3ccc(Cl)cc3)S2)cc1` (stereo unspecified), the result in assay [1] and in assay [8] was Active. Moreover, the Activity in assay [4] was -5%; in [5] it was -17%; in assay [6] it was -13%; in assay [7] it was 4%.

With `Nc1sc2c(c1C(=O)c1ccc(Cl)cc1)CCC(O)C2` (stereo unspecified), the result in assay [1] was Active. The Activity was 52% in assay [4], -2% in assay [5], -13% in [6] and -3% in assay [7].

With `Nc1sc2c(c1C(=O)c1ccc(Cl)cc1)CCC(Cc1ccccc1)C2` (stereo unspecified), the result in assay [1] and in assay [2] was Active. The Activity is 16% in assay [4], -1% in assay [5], -6% in [6] and -11% in [7].

As for `Nc1sc2c(c1C(=O)c1ccc(Cl)cc1)CCCC2`, the outcome in assay [1] was Active. The Activity in assay [4] was -55%; in assay [5], -26%; in [6] it was -23%; in assay [7] it was -8%.

Regarding `Nc1sc2c(c1C(=O)c1ccc(Cl)cc1)CCS2`, the result in assay [12], in [3] and in [13] was Active. Besides, the Activity in assay [4] was -35%; in [5], 1%; in [6] it was 11%; in assay [7], -1%.

Regarding `Nc1sc2c(c1C(=O)c1ccc(Cl)cc1)CCSC2`, the result in assay [1], in assay [3] and in [8] was Active. Moreover, the Activity in [4] is -0.3%; in [5] it was 16%; in assay [6], -10%; in assay [7] it was 15%.
